Laboratory results: ChEMBL document CHEMBL5143522, “Discovery of novel 6-hydroxybenzothiazole urea derivatives as dual Dyrk1A/α-synuclein aggregation inhibitors with neuroprotective effects” (Eur J Med Chem, 2022)
One block for each molecule: values may come before it. The source made the active and inactive calls. The rule behind the calls is not given here.

How the values were obtained:
[1] = biological target: Dual specificity tyrosine-phosphorylation-regulated kinase 1B (Homo sapiens) (UniProt Q9Y463); assay: Inhibition of human recombinant DYRK1B at 1 uM using KKISGRLSPIMTEQ as substrate incubated in presence of ATP relative to control
[2] = Permeability of the compound in PBS/EtOH buffer (7:3) incubated for 16 hrs by PAMPA-BBB assay
SH-SY5Y [3] = assay: Neuroprotective activity against alpha-syn induced cytotoxicity against human SH-SY5Y cells assessed as increase in cell viability at 10 uM by MTT assay; type: functional, cell-based
[4] = biological target: Serine/threonine-protein kinase pim-1 (Homo sapiens) (UniProt P11309); assay: Inhibition of PIM1 (unknown origin) at 1 uM incubated in presence of ATP by Selectscreen kinase assay relative to control
[5] = biological target: SRSF protein kinase 1 (Homo sapiens) (UniProt Q96SB4); assay: Inhibition of SRPK1 (unknown origin) at 1 uM incubated in presence of ATP by Selectscreen kinase assay relative to control
[6] = biological target: T1, Dual specificity tyrosine-phosphorylation-regulated kinase 1A (Homo sapiens, UniProt Q13627); assay: Inhibition of human N-terminal His6-tagged DYRK1A expressed in Escherichia coli BL21 (DE3) using KKISGRLSPIMTEQ as substrate incubated in presence of ATP
[7] = biological target: Cyclin-dependent kinase 5/CDK5 activator 1 (Homo sapiens) (UniProt Q00535+Q15078); assay: Inhibition of CDK5/p25 (unknown origin) at 1 uM by Selectscreen kinase assay relative to control; type: protein-complex assay
[8] = biological target: Dual specificity protein kinase CLK1 (Homo sapiens) (UniProt P49759); assay: Inhibition of GST-tagged human recombinant CLK1 (129 to 484 residues) expressed in Escherichia coli at 1 uM using GRSRSRSRSRSRSRSR as substrate incubated in presence of ATP by Selectscreen kinase assay relative to control
[9] = biological target: Glycogen synthase kinase-3 beta (Homo sapiens) (UniProt P49841); assay: Inhibition of GSK3beta (unknown origin) at 1 uM incubated in presence of ATP by Selectscreen kinase assay relative to control
[10] = biological target: T1, Dual specificity tyrosine-phosphorylation-regulated kinase 1A; conditions: dose 250.0 nM
[11] = biological target: Casein kinase I isoform delta (Homo sapiens) (UniProt P48730); assay: Inhibition of CSNK1D (unknown origin) at 1 uM incubated in presence of ATP by Selectscreen kinase assay relative to control
[12] = biological target: T2, Dual specificity tyrosine-phosphorylation-regulated kinase 2 (Homo sapiens) (UniProt Q92630); assay: Inhibition of DYRK2 (unknown origin) at 1 uM incubated in presence of ATP by Selectscreen kinase assay relative to control
T2 sequence (whole entry): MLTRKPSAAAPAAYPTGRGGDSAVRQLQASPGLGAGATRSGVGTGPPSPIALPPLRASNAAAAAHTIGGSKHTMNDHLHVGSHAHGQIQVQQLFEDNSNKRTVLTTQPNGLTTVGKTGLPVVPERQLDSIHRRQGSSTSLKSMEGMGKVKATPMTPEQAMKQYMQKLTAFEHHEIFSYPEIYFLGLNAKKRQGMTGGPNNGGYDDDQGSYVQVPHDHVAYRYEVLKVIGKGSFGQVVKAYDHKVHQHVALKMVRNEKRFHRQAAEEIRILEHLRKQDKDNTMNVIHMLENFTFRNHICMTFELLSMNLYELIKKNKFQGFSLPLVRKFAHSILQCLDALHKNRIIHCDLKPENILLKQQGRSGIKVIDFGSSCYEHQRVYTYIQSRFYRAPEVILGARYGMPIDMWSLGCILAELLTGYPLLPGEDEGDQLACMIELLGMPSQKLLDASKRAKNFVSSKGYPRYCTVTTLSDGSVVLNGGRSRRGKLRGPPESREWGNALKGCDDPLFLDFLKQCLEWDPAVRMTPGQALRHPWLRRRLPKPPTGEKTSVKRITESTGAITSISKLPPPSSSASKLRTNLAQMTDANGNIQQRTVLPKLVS

[13] = biological target: T3, Serine/threonine-protein kinase haspin (Homo sapiens) (UniProt Q8TF76); assay: Inhibition of GSG2 (unknown origin) at 1 uM incubated in presence of ATP by Selectscreen kinase assay relative to control
T3 sequence (whole entry): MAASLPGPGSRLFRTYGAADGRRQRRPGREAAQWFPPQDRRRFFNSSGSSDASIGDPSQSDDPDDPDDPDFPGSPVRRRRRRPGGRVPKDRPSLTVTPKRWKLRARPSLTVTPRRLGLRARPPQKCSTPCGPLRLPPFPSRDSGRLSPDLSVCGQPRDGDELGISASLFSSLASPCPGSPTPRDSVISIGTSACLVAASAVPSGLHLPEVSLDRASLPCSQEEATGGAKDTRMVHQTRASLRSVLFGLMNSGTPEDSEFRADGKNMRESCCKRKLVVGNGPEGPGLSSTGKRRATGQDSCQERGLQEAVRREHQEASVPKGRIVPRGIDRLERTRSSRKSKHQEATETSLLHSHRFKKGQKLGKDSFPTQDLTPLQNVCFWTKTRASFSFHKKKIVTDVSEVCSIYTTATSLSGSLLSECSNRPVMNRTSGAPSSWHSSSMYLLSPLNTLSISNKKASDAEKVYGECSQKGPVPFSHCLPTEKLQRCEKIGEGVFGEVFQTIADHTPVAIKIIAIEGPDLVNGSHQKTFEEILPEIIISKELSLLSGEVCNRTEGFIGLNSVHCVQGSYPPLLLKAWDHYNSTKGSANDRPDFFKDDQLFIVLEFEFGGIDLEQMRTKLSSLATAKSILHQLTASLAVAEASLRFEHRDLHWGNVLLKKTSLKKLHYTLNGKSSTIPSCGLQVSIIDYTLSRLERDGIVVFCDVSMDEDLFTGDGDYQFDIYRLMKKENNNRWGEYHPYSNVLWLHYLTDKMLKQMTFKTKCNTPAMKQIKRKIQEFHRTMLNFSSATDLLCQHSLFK

[14] = biological target: Homeodomain-interacting protein kinase 1 (Homo sapiens) (UniProt Q86Z02); assay: Inhibition of HIPK1 (unknown origin) at 1 uM incubated in presence of ATP by Selectscreen kinase assay relative to control
[15] = biological target: T4, Serine/threonine-protein kinase 17A (Homo sapiens) (UniProt Q9UEE5); assay: Inhibition of STK17A (unknown origin) at 1 uM incubated in presence of ATP by Selectscreen kinase assay relative to control
T4 sequence (whole entry): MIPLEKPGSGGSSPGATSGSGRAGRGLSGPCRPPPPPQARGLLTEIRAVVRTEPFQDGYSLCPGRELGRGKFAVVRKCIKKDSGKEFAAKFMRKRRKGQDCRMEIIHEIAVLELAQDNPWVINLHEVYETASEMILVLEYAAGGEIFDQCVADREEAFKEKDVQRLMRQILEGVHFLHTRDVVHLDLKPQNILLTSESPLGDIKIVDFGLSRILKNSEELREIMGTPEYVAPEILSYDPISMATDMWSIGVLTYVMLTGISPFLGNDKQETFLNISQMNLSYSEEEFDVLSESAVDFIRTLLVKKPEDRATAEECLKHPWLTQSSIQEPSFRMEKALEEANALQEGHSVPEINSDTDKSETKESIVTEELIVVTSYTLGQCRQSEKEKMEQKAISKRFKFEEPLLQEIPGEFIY

[16] = biological target: Myosin light chain kinase 2, skeletal/cardiac muscle (Homo sapiens) (UniProt Q9H1R3); assay: Inhibition of MLCK2 (unknown origin) at 1 uM incubated in presence of ATP by Selectscreen kinase assay relative to control
SH-SY5Y [17] = assay: Neuroprotective activity against 6-OHDA induced cytotoxicity against human SH-SY5Y cells assessed as increase in cell viability at 10 uM by MTT assay; type: functional, cell-based
[18] = biological target: T1, Dual specificity tyrosine-phosphorylation-regulated kinase 1A; assay: Binding affinity to C-terminal HiBiT-tagged human DYRK1A (28 to 499 residues) stably expressed in HEK293 cells assessed as thermal stability by measuring increase in DYRK1A in soluble fraction at 10 to 30 uM incubated for 3.5 mins by ITDRF-CETSA analysis; type: cell-based; conditions: dose 10-30 µM
[19] = biological target: T1, Dual specificity tyrosine-phosphorylation-regulated kinase 1A; assay: Inhibition of DYRK1A in human HeLa cells transiently expressing GFP-SF3B1 fusion protein assessed as reduction in SF3B1 phosphorylation incubated for 24 hrs by immunoblot analysis; type: cell-based
[20] = biological target: T1, Dual specificity tyrosine-phosphorylation-regulated kinase 1A; assay: Inhibition of human Dyrk1A
[21] = biological target: T5, Dual specificity tyrosine-phosphorylation-regulated kinase 2 (Homo sapiens, UniProt Q92630); assay: Inhibition of Dyrk2 (unknown origin)
T5 sequence (Q92630 whole entry): T2 sequence (whole entry)

Sequence of Dual specificity tyrosine-phosphorylation-regulated kinase 1B (Homo sapiens) (Q9Y463 whole entry, looked up): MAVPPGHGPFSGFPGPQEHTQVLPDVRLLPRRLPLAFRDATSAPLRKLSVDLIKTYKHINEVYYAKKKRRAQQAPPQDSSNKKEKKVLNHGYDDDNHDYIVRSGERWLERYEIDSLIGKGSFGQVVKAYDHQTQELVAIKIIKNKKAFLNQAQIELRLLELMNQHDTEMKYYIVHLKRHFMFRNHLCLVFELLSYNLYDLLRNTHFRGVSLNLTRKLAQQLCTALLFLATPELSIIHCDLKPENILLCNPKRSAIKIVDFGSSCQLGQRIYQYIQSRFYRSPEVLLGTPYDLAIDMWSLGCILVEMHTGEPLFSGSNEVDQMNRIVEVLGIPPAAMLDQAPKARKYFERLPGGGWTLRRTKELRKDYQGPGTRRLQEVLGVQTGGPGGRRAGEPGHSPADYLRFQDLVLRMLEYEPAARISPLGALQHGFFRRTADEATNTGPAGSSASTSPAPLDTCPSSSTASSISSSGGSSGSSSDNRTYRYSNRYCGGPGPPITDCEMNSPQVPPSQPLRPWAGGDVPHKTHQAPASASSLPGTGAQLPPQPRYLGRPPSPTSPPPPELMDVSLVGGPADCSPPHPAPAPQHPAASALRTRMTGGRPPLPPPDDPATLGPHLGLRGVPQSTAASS
Sequence of SRSF protein kinase 1 (Homo sapiens) (Q96SB4 whole entry): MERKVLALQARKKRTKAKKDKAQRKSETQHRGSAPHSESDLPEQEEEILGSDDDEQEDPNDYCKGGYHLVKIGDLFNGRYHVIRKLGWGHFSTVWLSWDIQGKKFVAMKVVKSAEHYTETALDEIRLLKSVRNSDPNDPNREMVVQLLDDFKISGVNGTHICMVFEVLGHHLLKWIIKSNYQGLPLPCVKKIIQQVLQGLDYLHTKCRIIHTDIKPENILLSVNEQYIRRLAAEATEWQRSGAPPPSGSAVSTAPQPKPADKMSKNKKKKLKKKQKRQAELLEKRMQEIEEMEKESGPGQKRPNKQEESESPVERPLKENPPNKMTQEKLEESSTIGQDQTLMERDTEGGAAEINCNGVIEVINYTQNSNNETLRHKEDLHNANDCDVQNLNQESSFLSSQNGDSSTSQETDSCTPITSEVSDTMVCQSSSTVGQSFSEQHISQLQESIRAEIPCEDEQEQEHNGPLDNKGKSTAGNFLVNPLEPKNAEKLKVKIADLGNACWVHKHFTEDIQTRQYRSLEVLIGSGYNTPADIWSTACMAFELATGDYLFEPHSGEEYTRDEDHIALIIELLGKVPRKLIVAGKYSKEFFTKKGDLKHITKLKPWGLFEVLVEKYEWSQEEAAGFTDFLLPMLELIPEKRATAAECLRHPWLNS
Sequence of Casein kinase I isoform delta (Homo sapiens) (P48730 whole entry, looked up, canonical isoform): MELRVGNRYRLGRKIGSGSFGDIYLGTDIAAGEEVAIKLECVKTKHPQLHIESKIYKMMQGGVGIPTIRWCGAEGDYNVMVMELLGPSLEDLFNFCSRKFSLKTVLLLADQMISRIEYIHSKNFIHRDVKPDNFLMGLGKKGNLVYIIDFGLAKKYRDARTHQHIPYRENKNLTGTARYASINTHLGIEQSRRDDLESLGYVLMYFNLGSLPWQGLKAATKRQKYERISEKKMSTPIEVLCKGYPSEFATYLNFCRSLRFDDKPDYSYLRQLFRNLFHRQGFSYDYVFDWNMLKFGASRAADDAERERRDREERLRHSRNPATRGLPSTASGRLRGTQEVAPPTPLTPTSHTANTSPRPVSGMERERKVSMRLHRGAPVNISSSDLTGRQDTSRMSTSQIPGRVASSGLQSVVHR
Sequence of Glycogen synthase kinase-3 beta (Homo sapiens) (P49841 whole entry, looked up): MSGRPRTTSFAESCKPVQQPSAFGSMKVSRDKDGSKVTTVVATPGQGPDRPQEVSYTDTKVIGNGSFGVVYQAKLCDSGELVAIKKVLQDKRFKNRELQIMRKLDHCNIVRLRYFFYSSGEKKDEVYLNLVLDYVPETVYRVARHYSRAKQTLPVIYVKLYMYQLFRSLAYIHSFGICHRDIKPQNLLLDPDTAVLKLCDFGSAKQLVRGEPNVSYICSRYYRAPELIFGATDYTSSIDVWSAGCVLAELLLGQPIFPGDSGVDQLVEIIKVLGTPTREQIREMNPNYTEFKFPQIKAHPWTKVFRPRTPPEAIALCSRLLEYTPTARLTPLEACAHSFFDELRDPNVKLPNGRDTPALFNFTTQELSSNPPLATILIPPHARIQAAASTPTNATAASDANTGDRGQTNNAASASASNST
Sequence of Dual specificity protein kinase CLK1 (Homo sapiens) (P49759 whole entry, looked up, the tested form may be a part): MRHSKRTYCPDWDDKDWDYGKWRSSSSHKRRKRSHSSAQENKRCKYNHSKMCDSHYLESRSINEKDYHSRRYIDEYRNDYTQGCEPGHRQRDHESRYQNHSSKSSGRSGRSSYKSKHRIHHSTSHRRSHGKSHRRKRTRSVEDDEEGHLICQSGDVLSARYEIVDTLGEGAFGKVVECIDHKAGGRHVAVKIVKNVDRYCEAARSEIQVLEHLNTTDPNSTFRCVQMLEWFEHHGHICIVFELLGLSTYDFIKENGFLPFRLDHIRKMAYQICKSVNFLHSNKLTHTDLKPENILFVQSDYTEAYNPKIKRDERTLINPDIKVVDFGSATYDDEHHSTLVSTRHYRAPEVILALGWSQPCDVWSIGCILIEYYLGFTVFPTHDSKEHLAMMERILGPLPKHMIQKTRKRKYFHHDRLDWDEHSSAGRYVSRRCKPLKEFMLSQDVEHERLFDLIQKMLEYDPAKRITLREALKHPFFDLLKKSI
Sequence of Serine/threonine-protein kinase pim-1 (Homo sapiens) (P11309 whole entry, looked up): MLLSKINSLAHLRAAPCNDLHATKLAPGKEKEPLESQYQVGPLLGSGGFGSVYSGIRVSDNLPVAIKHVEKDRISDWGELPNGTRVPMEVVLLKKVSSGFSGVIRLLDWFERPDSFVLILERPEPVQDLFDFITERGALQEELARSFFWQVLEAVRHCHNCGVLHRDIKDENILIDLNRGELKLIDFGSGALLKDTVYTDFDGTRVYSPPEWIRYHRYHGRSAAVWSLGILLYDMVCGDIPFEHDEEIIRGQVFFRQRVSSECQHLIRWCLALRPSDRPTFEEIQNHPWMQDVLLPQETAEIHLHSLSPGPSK
Sequence of Cyclin-dependent kinase 5/CDK5 activator 1 (Homo sapiens) (Q00535 whole entry, the tested form may be a part): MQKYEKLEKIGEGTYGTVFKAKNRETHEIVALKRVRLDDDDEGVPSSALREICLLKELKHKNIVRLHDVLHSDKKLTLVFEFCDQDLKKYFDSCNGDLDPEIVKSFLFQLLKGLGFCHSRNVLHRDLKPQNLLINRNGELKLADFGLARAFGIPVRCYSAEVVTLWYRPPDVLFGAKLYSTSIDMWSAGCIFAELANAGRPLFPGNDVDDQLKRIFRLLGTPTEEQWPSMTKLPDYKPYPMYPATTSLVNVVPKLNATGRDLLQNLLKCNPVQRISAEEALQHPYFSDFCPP
Sequence of Cyclin-dependent kinase 5/CDK5 activator 1 (Homo sapiens) (Q15078 99-307 partner limits assumed): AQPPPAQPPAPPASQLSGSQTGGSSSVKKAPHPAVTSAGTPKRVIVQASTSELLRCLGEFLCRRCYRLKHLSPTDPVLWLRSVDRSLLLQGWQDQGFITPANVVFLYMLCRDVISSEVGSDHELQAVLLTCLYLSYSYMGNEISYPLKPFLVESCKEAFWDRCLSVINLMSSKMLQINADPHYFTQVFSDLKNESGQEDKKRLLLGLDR
Sequence of Homeodomain-interacting protein kinase 1 (Homo sapiens) (Q86Z02 whole entry, looked up): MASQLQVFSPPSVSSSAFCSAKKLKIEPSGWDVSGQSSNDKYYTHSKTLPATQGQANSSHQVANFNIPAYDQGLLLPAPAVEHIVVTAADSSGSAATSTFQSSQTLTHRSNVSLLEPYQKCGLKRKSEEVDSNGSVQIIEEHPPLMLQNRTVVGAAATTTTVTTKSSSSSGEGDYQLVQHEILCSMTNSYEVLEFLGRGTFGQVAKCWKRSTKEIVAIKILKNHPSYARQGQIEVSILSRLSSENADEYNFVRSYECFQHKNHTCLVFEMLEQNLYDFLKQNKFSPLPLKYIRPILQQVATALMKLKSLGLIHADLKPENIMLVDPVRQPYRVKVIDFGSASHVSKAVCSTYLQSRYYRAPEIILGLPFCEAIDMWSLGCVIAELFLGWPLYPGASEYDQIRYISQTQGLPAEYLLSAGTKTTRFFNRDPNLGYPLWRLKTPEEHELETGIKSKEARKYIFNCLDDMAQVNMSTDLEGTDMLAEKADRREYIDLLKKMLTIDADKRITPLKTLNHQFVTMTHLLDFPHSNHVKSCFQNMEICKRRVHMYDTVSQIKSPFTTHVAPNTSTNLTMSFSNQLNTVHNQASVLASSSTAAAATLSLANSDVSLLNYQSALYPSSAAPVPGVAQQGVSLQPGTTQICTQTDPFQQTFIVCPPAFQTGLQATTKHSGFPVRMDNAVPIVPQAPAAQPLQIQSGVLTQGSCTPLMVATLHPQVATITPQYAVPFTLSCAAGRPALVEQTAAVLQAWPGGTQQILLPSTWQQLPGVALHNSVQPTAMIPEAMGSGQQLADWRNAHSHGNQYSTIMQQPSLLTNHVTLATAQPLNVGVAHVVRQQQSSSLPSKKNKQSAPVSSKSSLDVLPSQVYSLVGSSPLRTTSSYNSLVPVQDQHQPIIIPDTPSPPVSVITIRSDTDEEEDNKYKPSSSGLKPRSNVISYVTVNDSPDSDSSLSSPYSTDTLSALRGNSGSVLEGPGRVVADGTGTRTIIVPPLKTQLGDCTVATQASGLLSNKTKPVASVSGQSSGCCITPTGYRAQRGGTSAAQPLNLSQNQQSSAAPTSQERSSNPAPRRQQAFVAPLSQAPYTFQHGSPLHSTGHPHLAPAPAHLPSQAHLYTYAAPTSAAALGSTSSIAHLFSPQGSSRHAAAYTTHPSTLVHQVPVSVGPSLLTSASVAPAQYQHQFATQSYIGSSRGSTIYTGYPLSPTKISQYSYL

inhibition [1]: 30%
SMILES: Cc1cccc(C(=O)Nc2ccc(NC(=O)Nc3nc4ccc(O)cc4s3)cc2)c1

Papp at 16 h [2]: 6.5 ×10⁻⁶ cm/s
inhibition [1]: 46%
SMILES: O=C(Nc1ccc(NC(=O)c2cccc(O)c2)cc1)Nc1nc2ccc(O)cc2s1
Activity (SH-SY5Y [3]): Active

inhibition [1]: 10%
SMILES: O=C(Nc1ccc(NC(=O)c2cc(F)c(F)c(F)c2)cc1)Nc1nc2ccc(O)cc2s1

inhibition [4]: 3%
inhibition [5]: 4%
IC50 [6]: 45 nM
inhibition [7]: 5%
inhibition [1]: 15%
inhibition [8]: 7%
inhibition [9]: 15%
inhibition [10]: 79%
inhibition [11]: 15%
inhibition [12]: 27%
inhibition [13]: 3%
inhibition [14]: 2%
inhibition [15]: 29%
inhibition [16]: 18%
SMILES: O=C(Nc1ccc(NS(=O)(=O)c2cccc(F)c2)cc1)Nc1nc2ccc(O)cc2s1

inhibition [1]: 18%
SMILES: O=C(Nc1ccc(NS(=O)(=O)c2ccccc2)cc1)Nc1nc2ccc(O)cc2s1

SMILES: O=C(Nc1ccc(NC(=O)C2CCNCC2)cc1)Nc1nc2ccc(O)cc2s1
Activity (SH-SY5Y [17]): Active
IC50 [6]: 177 nM
Papp at 16 h [2]: 4.4 ×10⁻⁶ cm/s
inhibition [1]: 51%
inhibition [10]: 69%

IC50 [6]: 159 nM
inhibition [1]: 29%
inhibition [10]: 62%
SMILES: O=C(Nc1ccc(NC(=O)C2CC2)cc1)Nc1nc2ccc(O)cc2s1

inhibition [1]: 11%
SMILES: O=C(Nc1ccc(NC(=O)c2cc(F)cc(F)c2)cc1)Nc1nc2ccc(O)cc2s1

Activity [18]: Active
inhibition [4]: 3%
inhibition [5]: 4%
IC50 [6]: 20 nM
Papp at 16 h [2]: 7.9 ×10⁻⁶ cm/s
inhibition [7]: 6%
inhibition [8]: 21%
inhibition [9]: 8%
inhibition [10]: 75%
inhibition [11]: 6%
inhibition [12]: 20%
IC50 [19]: 690 nM
inhibition [15]: 28%
SMILES: O=C(Cc1ccccc1)Nc1ccc(NC(=O)Nc2nc3ccc(O)cc3s2)cc1

inhibition [1]: 19%
SMILES: O=C(Nc1ccc(NS(=O)(=O)c2ccccc2F)cc1)Nc1nc2ccc(O)cc2s1

IC50 [6]: 154 nM
inhibition [1]: 34%
inhibition [10]: 65%
SMILES: O=C(Nc1ccc(NC(=O)c2ccccc2)cc1)Nc1nc2ccc(O)cc2s1

inhibition [1]: 10%
SMILES: O=C(Nc1cccc(NS(=O)(=O)c2cccc(F)c2)c1)Nc1nc2ccc(O)cc2s1

Papp at 16 h [2]: 1.1 ×10⁻⁶ cm/s
SMILES: CCn1cc(C(=O)O)c(=O)c2cc(F)c(N3CCNCC3)cc21 [NORFLOXACIN]

IC50 [20]: 93 nM
IC50 [21]: > 5000 nM
SMILES: CN1CCN(C(=O)c2ccc(NC(=O)Nc3nc4ccc(O)cc4s3)cc2)CC1

inhibition [1]: 36%
SMILES: N#Cc1cccc(C(=O)Nc2ccc(NC(=O)Nc3nc4ccc(O)cc4s3)cc2)c1

inhibition [1]: 9%
SMILES: O=C(Nc1ccc(NC(=O)c2cccc(F)c2)cc1)Nc1nc2ccc(O)cc2s1

inhibition [1]: 13%
SMILES: O=C(Nc1ccc(NC(=O)c2ccc(F)cc2)cc1)Nc1nc2ccc(O)cc2s1

inhibition [1]: 13%
SMILES: O=C(Nc1ccc(NC(=O)c2cccc(Br)c2)cc1)Nc1nc2ccc(O)cc2s1

inhibition [1]: 17%
SMILES: O=C(Nc1ccc(NC(=O)c2c(F)cc(F)cc2F)cc1)Nc1nc2ccc(O)cc2s1

inhibition [1]: 11%
SMILES: O=C(Nc1ccc(NC(=O)c2cc(Cl)cc(Cl)c2)cc1)Nc1nc2ccc(O)cc2s1

inhibition [1]: 23%
SMILES: N#Cc1ccc(C(=O)Nc2ccc(NC(=O)Nc3nc4ccc(O)cc4s3)cc2)cc1

inhibition [1]: 17%
SMILES: O=C(Nc1ccc(NC(=O)c2ccccc2F)cc1)Nc1nc2ccc(O)cc2s1

inhibition [1]: 65%
SMILES: CC(=O)Nc1ccc(NC(=O)Nc2nc3ccc(O)cc3s2)cc1

inhibition [1]: 14%
SMILES: O=C(Nc1ccc(NC(=O)c2cccc(C(F)(F)F)c2)cc1)Nc1nc2ccc(O)cc2s1

inhibition [1]: 18%
SMILES: O=C(Nc1ccc(NC(=O)c2cccc(Cl)c2)cc1)Nc1nc2ccc(O)cc2s1

inhibition [1]: 26%
SMILES: O=C(Nc1ccc(NC(=O)C2CCC2)cc1)Nc1nc2ccc(O)cc2s1

inhibition [1]: 25%
SMILES: O=C(Nc1ccc(NC(=O)C2CCCCC2)cc1)Nc1nc2ccc(O)cc2s1

SMILES: COc1ccc2c(c1)[nH]c1c(C)nccc12
Activity (SH-SY5Y [17]): Active

inhibition [1]: 6%
SMILES: O=C(Nc1ccc(NC(=O)c2ccc(Cl)cc2)cc1)Nc1nc2ccc(O)cc2s1

inhibition [1]: 9%
SMILES: O=C(Nc1ccc(NS(=O)(=O)c2cc(F)cc(F)c2)cc1)Nc1nc2ccc(O)cc2s1
